The values below come from ChEMBL document CHEMBL5257130, “Methyl and Fluorine Effects in Novel Orally Bioavailable Keap1-Nrf2 PPI Inhibitor” (ACS Med Chem Lett, 2023).

In brackets after ≈: the same amount, converted by molar mass.

One data set deals with Keap1/Nrf2 (Homo sapiens, UniProt Q14145). The data set is described as follows: Inhibition of Nrf2-Keap1 Kelch domain (unknown origin) protein-protein interaction in presence of biotin labeled 16mer ETGE peptide AFFAQLQLDEETGEFL
It counts as protein assay.

Data set [1] is described as follows: Apparent permeability in human Caco-2 cells at 25 micromol/L incubated for 2 hrs by LC/MS/MS analysis. It counts as ADME, cell-based. To be noted: dose 25 µmol/L.
Data set [2] deals with Kelch-like ECH-associated protein 1 (Homo sapiens) (UniProt Q14145). Kind of data set: Binding affinity to Keap1 Kelch domain (unknown origin) assessed as change in entropy by isothermal titration calorimetry assay.
Sequence of Kelch-like ECH-associated protein 1 (Homo sapiens) (Q14145 whole entry, the tested form may be a part): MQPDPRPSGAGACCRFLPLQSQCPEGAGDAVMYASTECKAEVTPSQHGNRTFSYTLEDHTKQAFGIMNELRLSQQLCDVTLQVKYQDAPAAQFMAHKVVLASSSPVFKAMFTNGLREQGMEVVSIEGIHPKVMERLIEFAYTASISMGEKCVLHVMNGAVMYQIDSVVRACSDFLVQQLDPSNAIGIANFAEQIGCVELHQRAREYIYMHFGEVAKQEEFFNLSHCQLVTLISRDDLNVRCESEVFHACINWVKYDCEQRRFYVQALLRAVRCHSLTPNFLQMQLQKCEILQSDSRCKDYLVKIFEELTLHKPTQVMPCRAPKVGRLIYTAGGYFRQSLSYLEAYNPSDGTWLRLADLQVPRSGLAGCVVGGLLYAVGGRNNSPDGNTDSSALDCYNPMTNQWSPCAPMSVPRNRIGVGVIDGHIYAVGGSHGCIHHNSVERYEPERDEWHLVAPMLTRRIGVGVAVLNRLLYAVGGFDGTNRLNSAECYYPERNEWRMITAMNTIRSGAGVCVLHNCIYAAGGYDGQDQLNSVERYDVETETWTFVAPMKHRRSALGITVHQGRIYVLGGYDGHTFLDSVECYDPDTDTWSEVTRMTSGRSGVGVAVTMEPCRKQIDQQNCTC
The target is the same in data set [3].
Description: Binding affinity to Keap1 Kelch domain (unknown origin) assessed as change in free energy by isothermal titration calorimetry assay
For data set [4] the target is unchanged. The source holds these as a separate data set.
Description: Binding affinity to Keap1 Kelch domain (unknown origin) assessed as change in enthalpy by isothermal titration calorimetry assay
A further data set is described as follows: cells. The settings on record: Homo sapiens, HRMC, 18 h.
The nature of data set [5]: Solubility of compound in FASSIF at pH 6.5 incubated for 4 hrs by LC/MS analysis. It counts as ADME.
Data set [6] is described as follows: Solubility of compound in FeSSIF at pH 5 incubated for 4 hrs by LC/MS analysis. It counts as ADME.
Data set [7] is described as follows: Metabolic stability in human liver microsomes assessed as parent compound remaining at 5 uM measured after 60 mins. The format is ADME, Microsome. The settings on record: read-out: Stability. On the technique in general: Liver microsomes are vesicles of endoplasmic reticulum, rich in cytochrome P450 enzymes.
The nature of data set [8]: Metabolic stability in rat liver microsomes assessed as parent compound remaining at 5 uM measured after 60 mins. The settings on record: read-out: Stability. It counts as ADME, Microsome.
Data set [9] is described as follows: MRT in CD(SD) rat at 1 mg/kg, iv measured upto 25 hrs. The settings on record: in vivo. The format is ADME, organism-based.
Data set [10] in a line: MRT in CD(SD) rat at 3 mg/kg, po measured upto 25 hrs. The format is ADME, organism-based. To be noted: in vivo.
The nature of data set [11]: Half life in CD(SD) rat at 1 mg/kg, iv measured upto 25 hrs. The settings on record: in vivo. The format is ADME, organism-based.
The nature of data set [12]: Tmax in CD(SD) rat at 3 mg/kg, po measured upto 25 hrs. It counts as ADME, organism-based. To be noted: in vivo.
A short description of data set [13]: Total clearance in CD(SD) rat at 1 mg/kg, iv measured upto 25 hrs. It counts as ADME, organism-based. To be noted: in vivo.
Data set [14] can be described thus: Volume of distribution in CD(SD) rat at 1 mg/kg, iv measured upto 25 hrs. It counts as ADME, organism-based. The settings on record: in vivo.
Data set [15] can be described thus: AUC in CD(SD) rat at 1 mg/kg, iv measured upto 25 hrs. The format is ADME, organism-based. On the set-up: time < 25 hrs, dose 1 mg/kg, route iv. To be noted: in vivo.
Data set [16] can be described thus: AUC in CD(SD) rat at 3 mg/kg, po measured upto 25 hrs. It counts as ADME, organism-based. On the set-up: time < 25 hrs, dose 3 mg/kg, route po. To be noted: in vivo.
A short description of data set [17]: Oral bioavailability in CD(SD) rat at 3 mg/kg measured upto 25 hrs. The format is ADME, organism-based. The settings on record: in vivo.
Data set [18] deals with KEAP1/NRF2 (Rattus norvegicus) (UniProt O54968+P57790). The data set is described as follows: In vivo inhibition of Nrf2-Keap1 Kelch domain protein-protein interaction in po dosed Wistar rat kidney assessed as increase in HO-1 protein level incubated for 6 hrs by ELISA assay. It counts as functional, organism-based. The settings on record: dose 3-30 mg/kg. (In general: An ELISA detects its analyte on a solid surface through an enzyme-linked reagent.)

Sequence of Keap1/Nrf2 (Q16236 whole entry, the tested form may be a part): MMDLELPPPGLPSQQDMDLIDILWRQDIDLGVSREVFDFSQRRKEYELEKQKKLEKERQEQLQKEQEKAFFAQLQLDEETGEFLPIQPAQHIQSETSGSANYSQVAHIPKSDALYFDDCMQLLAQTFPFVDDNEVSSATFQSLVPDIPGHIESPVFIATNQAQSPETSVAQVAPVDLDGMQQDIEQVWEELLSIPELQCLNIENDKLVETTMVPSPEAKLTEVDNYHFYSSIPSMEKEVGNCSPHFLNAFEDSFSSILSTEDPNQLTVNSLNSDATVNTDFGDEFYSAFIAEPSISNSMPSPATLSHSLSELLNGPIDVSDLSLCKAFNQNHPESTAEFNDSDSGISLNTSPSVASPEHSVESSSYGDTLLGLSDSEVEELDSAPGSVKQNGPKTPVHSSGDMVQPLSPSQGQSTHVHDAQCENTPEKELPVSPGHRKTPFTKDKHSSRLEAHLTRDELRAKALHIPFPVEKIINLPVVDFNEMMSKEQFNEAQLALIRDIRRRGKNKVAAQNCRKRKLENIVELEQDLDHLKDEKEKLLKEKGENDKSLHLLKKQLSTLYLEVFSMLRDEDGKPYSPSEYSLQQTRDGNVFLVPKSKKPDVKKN
Sequence of Keap1/Nrf2 (Q14145 whole entry, the tested form may be a part): as the sequence (Q14145 whole entry, the tested form may be a part) above
Description for cells: Upregulation of HO-1 expression in human HRMC cells incubated for 18 hrs by ELISA assay

In general, IC50 refers to the concentration that gives 50% inhibition. Consider `CO[C@@H](C(=O)N[C@H](c1ccc(C)cc1)[C@@H](C)C(=O)O)c1ccccc1`, for which, on Keap1/Nrf2, the IC50 was 83 µM.
By Papp is commonly meant the rate of passage across a membrane or cell layer, normalised by area and donor concentration. Regarding `Cc1ccc([C@@H](NC(=O)Cc2ccccc2)[C@@H](C)C(=O)O)cc1`, the IC50 on Keap1/Nrf2 worked out at 67 µM. Further, the Papp at 2 h, 25 µM in data set [1] came to 2.3 ×10⁻⁶ cm/s.
On to `Cc1ccc([C@H](CC(=O)O)NC(=O)Cc2ccc3c(c2)CCCC3)cc1`, for which the IC50 at Keap1/Nrf2 was 39 µM. Besides, in [2], the -TdeltaS was -2.2 kcal/mol. In [3], this compound displayed a deltaG of -6.7 kcal/mol. In data set [4], this compound showed a deltaH of -4.5 kcal/mol.
As for `Cc1ccc([C@@H](CC(=O)O)NC(=O)Cc2ccc3c(c2)CCCC3)cc1`, the IC50 on Keap1/Nrf2 was above 100 µM.
As to `Cc1ccc([C@@H](NC(=O)[C@@H](F)c2ccccc2)[C@@H](C)C(=O)O)cc1`, the IC50 at Keap1/Nrf2 is 3.5 µM; in “cells”, 36 µM. For the same compound, in data set [1], the Papp at 2 h, 25 µM was determined as 12 ×10⁻⁶ cm/s.
As to `Cc1ccc(C(NC(=O)Cc2ccc3c(c2)CCCC3)C2(C(=O)O)CC2)cc1` (stereo not given), the IC50 on Keap1/Nrf2 was found to be 54 µM.
`Cc1ccc([C@@H](NC(=O)[C@H](O)c2ccccc2)[C@@H](C)C(=O)O)cc1`: the half-maximal inhibitory concentration (IC50) at Keap1/Nrf2 was above 100 µM. The Papp at 2 h, 25 µM in data set [1] turned out to be 0.27 ×10⁻⁶ cm/s.
On the same counts, the results for `Cc1ccc([C@@H](NC(=O)[C@@H](O)c2ccccc2)[C@@H](C)C(=O)O)cc1` are 96 µM and 0.26 ×10⁻⁶ cm/s.
On the same counts, the results for `Cc1ccc([C@@H](NC(=O)C(=O)c2ccccc2)[C@@H](C)C(=O)O)cc1` are above 100 µM and 1.7 ×10⁻⁶ cm/s.
The solubility is the concentration that dissolves in the medium under given conditions. Take `Cc1ccc(C(CC(=O)O)NC(=O)Cc2ccc3c(c2)CCCC3)cc1` (stereo not given): at Keap1/Nrf2, the half-inhibitory concentration (IC50) turned out to be 40 µM. Besides, the values for the solubility at 4 h in data set [5] and in [6] were 432 µM (≈ 152 µg/mL) and 469 µM (≈ 165 µg/mL), respectively. In data set [1], the Papp at 2 h, 25 µM is 17 ×10⁻⁶ cm/s. Also, the remaining at 1 h, 5 µM was determined as 85% in data set [7] and 95% in data set [8].
Turning to `CC[C@@H](C(=O)O)[C@H](NC(=O)Cc1ccc2c(c1)CCCC2)c1ccc(C)cc1`, at Keap1/Nrf2, the IC50 is 55 µM.
The same measure, in the same setting: then `Cc1ccc(C(NC(=O)Cc2ccc3c(c2)CCCC3)C(C)(C)C(=O)O)cc1` (stereo not given), with 17 µM.
Still for that read-out and setting: the figure for `Cc1ccc([C@@H](NC(=O)Cc2ccc3c(c2)CCCC3)[C@H](C)C(=O)O)cc1` is 51 µM.
On to `Cc1ccc([C@@H](NC(=O)C(F)(F)c2ccccc2)[C@@H](C)C(=O)O)cc1`, for which the values for the IC50 at Keap1/Nrf2 and in “cells” were 8.9 µM and 66 µM, respectively. The Papp at 2 h, 25 µM in data set [1] was 15 ×10⁻⁶ cm/s.
With `Cc1ccc([C@@H](NC(=O)[C@H](F)c2ccccc2)[C@@H](C)C(=O)O)cc1`, the IC50 at Keap1/Nrf2 came out at 90 µM. Moreover, in data set [1], the Papp at 2 h, 25 µM amounted to 6.6 ×10⁻⁶ cm/s.
For the compound `Cc1ccc([C@@H](NC(=O)Cc2ccc3c(c2)CCCC3)[C@@H](C)C(=O)O)cc1`, the concentration for half-maximal inhibition (IC50) is 2.8 µM on Keap1/Nrf2 and 56 µM in the data set “cells”. In data set [1], the apparent permeability (Papp) at 2 h, 25 µM turned out to be 25 ×10⁻⁶ cm/s. Further, the -TdeltaS in [2] is -3.7 kcal/mol. The compound also returned a deltaG in data set [3] of -8 kcal/mol. The deltaH in [4] is -4.3 kcal/mol.
For the compound `CO[C@H](C(=O)N[C@H](c1ccc(C)cc1)[C@@H](C)C(=O)O)c1ccccc1`, the IC50 on Keap1/Nrf2 is above 100 µM. The Papp at 2 h, 25 µM in data set [1] stood at 3.4 ×10⁻⁶ cm/s.
In the case of `CC[C@H](C(=O)O)[C@H](NC(=O)Cc1ccc2c(c1)CCCC2)c1ccc(C)cc1`, the IC50 on Keap1/Nrf2 stood at 99 µM.
The MRT is a mean duration of stay, worked out from the concentration-time curve. Usually half-life stands for how long it takes for the measured level to halve. A low value points to rapid decline. The Tmax is the time at which the peak concentration occurs. What is called clearance is the rate of elimination divided by the concentration. A high value points to a high capacity for elimination. As usually defined, the Vd is a proportionality between amount in the body and measured concentration, not a real space. The AUC is concentration integrated over time. Lower therefore signals low exposure. Take `Cc1ccc([C@@H](NC(=O)[C@@H](F)c2ccc3c(c2)CCCC3)[C@@H](C)C(=O)O)cc1`: the IC50 was 0.089 µM at Keap1/Nrf2 and 2 µM in the data set “cells”. Besides, the solubility at 4 h in [5] was at least 475 µM; in data set [6], 303 µM (≈ 116 µg/mL). Besides, the Papp at 2 h, 25 µM in data set [1] came out at 33 ×10⁻⁶ cm/s. The remaining at 1 h, 5 µM in data set [7] turned out to be 70%; in [8], 87%. Moreover, in data set [2], the -TdeltaS is -1.2 kcal/mol. The MRT worked out at 5.6 h in data set [9] and 10 h in [10]. The compound further showed a half-life in data set [11] of 4.5 h. Further, in data set [12], the Tmax is 1.3 h. Moreover, the clearance in data set [13] is 0.5 mL/min/kg. This compound showed a Vd in [14] of 0.18 L/kg. Further, the AUC at 25 h in [15] was 79 µM·h; in data set [16], 324 µM·h. In addition, the bioavailability in [17] came out at 136%. The inhibition entry in data set [18] was “Dose-Dependent Effect”.
As to `COc1ccc(S(=O)(=O)Nc2ccc(N3CCCCCC3)cc2C(=O)O)cc1`, the IC50 at Keap1/Nrf2 was found to be 37 µM. In addition, the solubility at 4 h is at least 475 µM in data set [5] and 424 µM (≈ 172 µg/mL) in [6]. Further, in data set [1], the apparent permeability (Papp) at 2 h, 25 µM amounted to 13 ×10⁻⁶ cm/s. Further, the remaining at 1 h, 5 µM in data set [7] and in data set [8] was 0% throughout.
